These results are taken from publication PMC3402595 (Breast Cancer Research and Treatment, 2012).

Structures are written as SMILES. Where a SMILES comes first, the peptide text is derived from it. [ ]: non-standard residue; d: D form. pS = N[C@@H](COP(=O)(O)O)C(=O)O

The nature of data set [1]: Precipitation of Olaparib. Format: physicochemical.
The target in data set [2] is T1, BRCT(BRCA1) (Homo sapiens, UniProt P38398). The data set is described as follows: Competitive fluorescence polarization, inhibition of BRCT. Format: binding. In general terms: In fluorescence polarisation assays a small probe gives low polarisation when free and higher when bound to something large.
T1 sequence (P38398 1646-1859 limits assumed): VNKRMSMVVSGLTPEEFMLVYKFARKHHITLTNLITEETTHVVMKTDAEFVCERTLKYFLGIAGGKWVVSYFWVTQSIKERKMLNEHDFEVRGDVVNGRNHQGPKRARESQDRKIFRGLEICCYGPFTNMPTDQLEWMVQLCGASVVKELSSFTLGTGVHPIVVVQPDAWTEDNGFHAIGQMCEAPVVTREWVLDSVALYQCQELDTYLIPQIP
Data set [3] addresses T1, BRCT(BRCA1). As to conditions: systematic structure activity relationship study; ref [3]; cited from earlier work.

For orientation: Ki means a measure of affinity in units of concentration, obtained from inhibition or displacement. A lower Ki goes with tighter binding.

Regarding `O=C(c1cc(Cc2n[nH]c(=O)c3ccccc23)ccc1F)N1CCN(C(=O)C2CC2)CC1` [Olaparib], in data set [1], the “concentration at which precipitation of Olaparib was observed” value is “higher than 25 μM”.

Take `CC(=O)N[C@@H](COP(=O)(O)O)C(=O)N1CCC[C@H]1C(=O)N[C@H](C(=O)N[C@@H](Cc1ccccc1)C(=O)O)[C@@H](C)O` [Inhibitor 1, Ac-pSPTF-CO2H] (Ac-[pS]PTF-OH): the inhibition constant Ki in data set [2] stood at 230 ± 60 nM. Further, the “binding affinity for BRCT(BRCA1)” value in data set [3] is recorded as “nanomolar binding affinities”.
